From a melting point compilation (Tetko et al.; mined from patent text by program, amines drawn as free bases though some values may be those of a salt)

Row | Structure (SMILES) | melting point [°C]
1 | CCCn1c(=O)c2c(nc(/C=C/c3ccc(OCOC)c(OCOC)c3)n2C)n(CCC)c1=O | 172 to 173
2 | COC(=O)c1cc(OC)c(OCc2ccccc2)cc1N=CN(C)C | 134 to 140
3 | CCC(=O)c1ccc(OC)c(O)c1 | 91 to 92
4 | CCCCc1nc(SC)c(C(=O)O)n1Cc1ccc(-c2ccccc2S(=O)(=O)NC(=O)NCCC)cc1 | 109 to 111
5 | CC(C)(C)C1=CC(=CC#Cc2ccc(C(=O)O)cc2)C=C(C(C)(C)C)C1=O | 216 to 218
6 | COc1cccc2sc(C(=O)Nc3nnn[nH]3)c(OC(C)C)c12 | 233
7 | Nc1nc(-c2ccc(OCC(=O)NCC3CCCCC3)cc2)cs1 | 145 to 147
8 | N#CC1Cc2ccc([N+](=O)[O-])cc2C1 (stereo not given) | 80 to 82
9 | CN1CCN(S(=O)(=O)c2cc(-c3csc(=Nc4ccccc4)n3C)ccc2Cl)CC1 | 156 to 158
10 | COC(=O)C=Cc1ccc(C(C)(C)C)cc1 | 35
11 | CC(CC1CNc2nc(N)nc(O)c2C1)c1ccc(C(=O)N[C@@H](CCC(=O)O)C(=O)O)cc1 (stereo not given in full) | > 250
12 | CCCN(C(C)C)C1COc2cccc(C(=O)NC(C)C)c2C1 (stereo not given) | 124
13 | COC(C#N)c1ccc2ccccc2c1 (stereo not given) | 47 to 48
14 | CCCCCCCCC(Br)C(=O)Nc1c(OC)cc(OC)cc1OC (stereo not given) | 109 to 110
15 | COC(=O)c1c(-c2cccc([N+](=O)[O-])c2)cc(-c2ccccc2)nc1C | 127 to 129
16 | CCCC(=O)c1cc2c(cc1C)NC(=O)C2(O)C(=O)OCC (stereo not given) | 180 to 181
17 | COc1cnc(CO)cc1OC | 122 to 124
18 | Cc1cc2ccccc2cc1C1CC(=O)C=C(O)C1 (stereo not given) | 210
19 | O=C(Cc1ccccc1Cl)Nc1ccc(C(=O)N2CCCCc3sccc32)cc1 | 178 to 180
20 | CCN(C)C(=O)N(C)C(=O)Nc1ccccc1 | 88.5 to 90.5
21 | CCN(C(=O)c1ccccc1C(=O)c1ccc(F)cc1)C(C)(C)CNS(=O)(=O)c1ccc(C)cc1 | 154 to 156
22 | Cc1c(Cl)ccc2c1N=C(c1ccncc1)OC2c1ccc(Br)cc1 (stereo not given) | 169 to 170
23 | CCCCCC(=O)c1cccc(NC(=O)c2ccc(Cl)cc2O)c1 | 134 to 136
24 | COc1cccc(C(O)c2nc3c(cc2C)CCCCC3)c1 (stereo not given) | 104 to 106
25 | COC1CCN2C(=O)c3cccc([N+](=O)[O-])c3C2C1 (stereo not given) | 132 to 134

Row | Structure (SMILES) | melting point [°C]
26 | CN1C(=O)[C@H](NC(=O)/C=C/c2ccc(Cl)c(Cl)c2)N=C(c2ccccc2)c2ccccc21 | 145 to 147
27 | COC(=O)c1nc(N)sc1CCC(C)C | 108 to 110
28 | NCc1cc(Cl)ccc1OCC(N)=O | 135 to 137
29 | COCCNC(=O)Nc1c(C)c(C)c2c(c1C)C(c1ccc(C(C)C)cc1)CO2 (stereo not given) | 172 to 173
30 | CCc1nc(-c2ccc(OCCC3CCN(c4ccc(C)nn4)CC3)cc2)no1 | 125
31 | COC(=O)c1cc(-c2c(-c3ccccc3)nn3ccccc23)cn(C)c1=O | 268 to 270
32 | CC(C)n1nc(-c2c(OCCN(C)C)nc(N)nc2-c2ccccc2)ccc1=O | 130 to 132
33 | COc1ccc(C(=O)c2c(N)sc(C)c2C)cc1 | 132 to 133
34 | Cc1nc2cc(NC(=O)c3ccccc3O)ccc2o1 | 202 to 206
35 | Cc1nc(-c2ccccc2)nc2sc3c(N4CCNCC4)nc(Cl)nc3c12 | > 310
36 | COC(=O)[C@H](COC(C)(C)C)NC(=O)[C@@H](NC(=O)[C@H](Cc1ccccc1)NC(=O)[C@@H](NC(=O)OCc1ccccc1)[C@@H](C)OC(C)(C)C)[C@@H](C)OC(C)(C)C | 114 to 115
37 | O=C(O)COCCc1ccc(Cl)cc1 | 75 to 77
38 | CCCn1c(=O)c2[nH]c(-c3cc(C)n(CC(=O)Nc4ccccc4)n3)nc2n(CCC)c1=O | 255 to 257
39 | O=C(NCCc1ccc(O)cc1)OCc1ccccc1 | 96 to 98
40 | COc1ccccc1N1CCN(CCCn2c(=O)[nH]c3ccsc3c2=O)CC1 | 78 to 84
41 | CC(C)(C)c1cc(CCC(=O)ON(Cc2ccccc2)Cc2ccccc2)cc(C(C)(C)C)c1O | 93 to 95.5
42 | CC1(c2ccc(N)c(C(=O)c3ccccc3)c2)OCCO1 | 108 to 111
43 | COc1cc(Cl)ccc1N=c1scc(-c2ccc(Cl)c(S(=O)(=O)N(C)C)c2)n1C | 148 to 150
44 | COC(=O)c1cccc2c(=O)c3cccc(I)c3[nH]c12 | 174 to 176
45 | N#CCC(=O)c1ccc[nH]1 | 79 to 81
46 | COC(=O)c1ccc2c(=O)c(Cc3ccccc3)coc2c1 | 98 to 100
47 | CN=C1N(c2c(C)cccc2C)CCN1c1c(C)cccc1C | 180 to 181
48 | CC1(C)Cc2ccc(Cl)cc2C=[N+]1[O-] | 88 to 89
49 | CC(C)(C)OC(=O)N[C@H](CC(=O)OCc1ccccc1)C(=O)N[C@H](CO)c1ccccc1 | 117 to 118
50 | CCCCCC(C)C(C)c1cc(O)cc(OC(NC(C)=O)c2ccccc2)c1 (stereo not given) | 196 to 199

Row | Structure (SMILES) | melting point [°C]
51 | CC(NC(=O)Cc1cc(F)cc(F)c1)C(=O)NC1C(=O)NC(F)c2ccccc21 (stereo not given) | 195 to 200
52 | CC(NC(N)=C[N+](=O)[O-])C1=CCC=CC1 (stereo not given) | 120 to 125
53 | CCCCc1nn2c(c1Cc1ccc(C(=O)O)cc1)CCCC2 | 148 to 150
54 | CCCC=NNc1cc2c(nn1)CCN(C(=O)c1ccc(-c3ccccc3)cc1)C2 | 260 to 262
55 | Cc1ccccc1NC(C#N)c1c(Cl)cccc1Cl (stereo not given) | 108
56 | COC(=O)c1cc2cc(OCc3cccnc3)ccc2s1 | 126 to 127
57 | CC(=O)OCC1OC(n2c(Cl)nc3c(Cl)cc(Cl)cc32)C(OC(C)=O)C1OC(C)=O (stereo not given) | 165 to 167
58 | FC(F)(F)c1ccc2nccc(N3CCN(C(=S)NCc4ccccc4)CC3)c2c1 | 158 to 159
59 | Cc1sc(-c2ccc(Cl)cc2)nc1O | 198 to 199
60 | CSc1cccc2nc3sccn3c(=O)c12 | 186 to 189
61 | c1ccc2c(c1)CSCCCN2 | 77 to 79
62 | CNS(=O)(=O)Cc1cc(Br)c(NC(=O)C(F)(F)F)c(Br)c1 | 179 to 180
63 | C#CCN1C(=O)CC(c2ccccc2)N=C1c1ccccc1 (stereo not given) | 74.5 to 77
64 | O=S1(=O)NCCc2ccc(Oc3ccccc3)cc21 | 129 to 132
65 | O=c1c2ccccc2sc(-c2ccncc2)[n+]1[O-] | 248 to 252
66 | NC(=O)C1(CC23CC4CC(CC(C4)C2)C3)C=C(O)C=CC1Cl (stereo not given) | 263 to 264
67 | CS(=O)c1ccc(Oc2ccc([N+](=O)[O-])cc2)cc1 (stereo not given) | 76 to 78
68 | COC(=O)c1ccsc1N=C=S | 63 to 65
69 | CNc1n[nH]c(=S)n1C | 213
70 | O=C(Cc1cc(F)cc(F)c1)Nc1ccc(NCc2ccc(F)cc2)nc1N1CCOCC1 | 196 to 198
71 | CCc1c(OC)nc(OC)nc1C(C#N)c1cc(Cl)cc(Cl)c1 (stereo not given) | 121 to 122
72 | CCOC(=O)c1c[nH]c2nc(N3CCN(C)CC3)ncc2c1=O | 266 to 268
73 | CC(=O)c1cc(Cl)c(N)cc1F | 97 to 98
74 | NS(=O)(=O)CCNC(=O)OCc1ccccc1 | 107 to 109
75 | CCn1cnc2c(Nc3cccc(C(=O)OC)c3)nc(Cl)nc21 | 148
